Laboratory results: patent US10806819B2, “Wound coverings comprising vitamin d and related methods” (Marshall University Research Corporation, priority 2015, dated 2020)

Legend:
HaCat cells = assay: HaCat cell proliferation / cytotoxicity (cell counting); format: cell-based, human; settings: 5.0×10^−6 M free drug
Experimental: (§1) This Example describes cell proliferation of cells treated with the PCL fibers produced in Example 1. Human keratinocyte cell line (HaCat) and monocyte cell line (U937) were cultured in D-MEM with 10% FCS and RPMI-1640 media with 10% FCS respectively. The cultures were maintained at 37° C. under 95% air and 5% CO2 until reaching 80% confluence. The subconfluent HaCat cells were dissociated with a 0.05% trypsin-EDTA and re-suspended in a fresh complete media. U937 cells were precipitated by 300 g centrifugation and then re-suspended in a fresh complete media. The single HaCat cell suspensions were created by gently pipetting up and down HaCat cell aggregates and then placed in 6-cm culture dishes and incubated for 1 day. At the beginning of experiments, 5.0×10^5, 2.0×10^5 and 1.0×10^5 cells were seeded in the culture dishes for 1-day, 3-day, and 5-day treatments, respectively. The media was then replaced by D-MEM containing 0.52% DMSO, D-MEM containing 5.0×10^−7 M 25(OH)D, D-MEM containing 5.0×10^−6 M 25(OH)D, D-MEM containing 1 mg/ml pristine PCL fibers, and D-MEM containing 1 mg/ml 25(OH)D loaded PCL fibers and incubated for 1, 3, and 5 days. Of note, 5.0×10^−6 M 25(OH)D was chosen as a control due to cytotoxicity in OKF6-TERT2 cells. […]
(§2) The HaCat cells and U937 cells were seeded in 24-well plates. […] The cell density was calculated based on the cell counting (FIGS. 5A-5B). […]

U937 cells = assay: U937 cell proliferation / cytotoxicity (cell counting); format: cell-based, human; settings: 5.0×10^−6 M, 3 days and 5 days
Experimental: as §1, §2

[1] = tested on: cathelicidin (hCAP18) in HaCat cells; assay: immunofluorescence assay of cathelicidin (hCAP18) expression in HaCat cells; format: cell-based, human
Experimental: (§3) This Example describes an immunofluorescence assay performed on cells treated with the PCL produced in Example 1. The cells were treated with different formulations as discussed above, the cells were rinsed with PBS twice and fixed with 4% paraformaldehyde for 30 min at 37° C. followed by incubation with TNBS (0.05% Triton-X100, 2% FBS in pH 7.2 PBS) for 30 minutes at room temperature prior to immunostaining. Goat anti-cathelicidin polyclonal antibody (1:200) was incubated to label intercellular cathelicidin at 4° C. overnight. Both the full length and cleaved C terminus of cathelicidin (hCAP18) were labeled. Mouse anti-goat IgG-FITC antibody (1:100) was incubated for 2 h after removal of primary antibody and washed with TNBS three times. Then, the secondary antibody was removed and washed by TNBS three times. Nuclei were counterstained with 10 μM DAPI in blue. Images were taken with a digital camera (Carl Zeiss). The exposure time for taking images for HaCat and U937 cells was fixed at 400 ms and 40 ms, respectively.

[2] = tested on: cathelicidin (hCAP18) in U937 cells; assay: immunofluorescence assay of cathelicidin (hCAP18) expression in U937 cells; format: cell-based, human
Experimental: as §3

[3] = tested on: LL-37 production in HaCat cells; assay: LL-37 ELISA of HaCat cell lysate; format: cell-based, human; settings: 5.0×10^−7 M free drug
Experimental: (§4) This Example describes the production of LL-37 in cells treated with the PCL fibers produced in Example 1. Single cell suspensions of both HaCat cells (human keratinocyte cell line) and U937 cells (leukemic monocyte lymphoma cell line) were seeded in 6-cm culture dishes. 5.0×10^5, 2.0×10^5 and 1.0×10^5 cells were seeded in the culture dishes for 1-day, 3-day, and 5-day treatments, respectively. Cells were treated with different formulations as described above and harvested at each time point. The subconfluent HaCat cells and U937 cell suspensions were washed with PBS twice. Subsequently, 300 μl of the M-PER mammalian protein extraction reagent with 0.1% protease inhibitor cocktail was added to […]. They were agitated for 20 min and lysate was collected and transferred to a 1.5-ml microcentrifuge tube. The samples were centrifuged at 14000×g for 40 min at 4° C. to pelletize the cell debris and the supernatant was transferred to a new tube for analysis. Total protein concentration was tested by MicroBCA kit before ELISA test. Concentrations of LL-37 in cell lysate were determined by LL-37 ELISA assay kit based on the manufacturer's instructions.

[4] = tested on: LL-37 production in U937 cells; assay: LL-37 ELISA of U937 cell lysate; format: cell-based, human; settings: for amount of LL-37 produced from U937 cells: 5.0×10^−6 M
Experimental: as §4

Pseudomonas aeruginosa = assay: antibacterial activity of U937 lysis solutions (CFU count on agar plates); format: cell-based; settings: U937 treated with 5.0×10^−6 M for 5 days
Experimental: FIG. 8 is a graph showing the quantification of Pseudomonas aeruginosa CFUs treated by U937 lysis solutions. U937 were incubated in the presence of 1 mg/ml pristine PCL fibers, 0.52% DMSO, 5.0×10^−7 M 25(OH)D, 5.0×10^−6 M 25(OH)D, and 1 mg/ml plasma treated and 25(OH)D loaded PCL fibers (containing 5.0×10^−7M 25(OH)D equivalent amount based on the calculations from release profiles in the first 3 days) for 1, 3 and 5 days. Bacteria were incubated with cell lysis solutions and CFUs were counted on agar plates. Each data point represents arithmetic mean±SD values from three samples. Statistical significance was evaluated by student's t-test (*p<0.05).
This Example describes the antibacterial activities in cells treated with the PCL fibers produced in Example 1. Briefly, bacteria were incubated with cell lysis solutions and CFUs were counted on agar plates.

OKF6-TERT2 = settings: recent study; cited from earlier work
cell growth = settings: direct administration; cited from earlier work
Staphylococcus aureus = settings: cited from earlier work

## C=C1CC[C@H](O)C/C1=C/C=C1\CCC[C@]2(C)[C@@H]([C@H](C)CCCC(C)(C)O)CC[C@@H]12 [25(OH)D, 25-hydroxyvitamin D3]
HaCat cells
  cytotoxic effects on HaCat cells: marginal cytotoxic effects
U937 cells
  proliferation rate of U937 cells: reduced dramatically
[1]; 5.0×10^−6 M, 3 days
  hCAP 18 staining in HaCat cells: positive green fluorescent staining
[1]; 5.0×10^−7 M
  hCAP 18 expression in HaCat cells: did not demonstrate hCAP 18 expression
[2]; 5.0×10^−6 M, day 1 to day 3
  change of fluorescence intensity (hCAP 18) of U937 cells: increased
[2]; 5.0×10^−6 M, day 3 to day 5
  change of fluorescence intensity (expression level of hCAP 18) of U937 cells: decreased
[2]; 5.0×10^−6 M, one day
  hCAP 18 expression in U937 cells: exhibited expression of hCAP 18
[2]; 5.0×10^−7 M, each time point
  cathelicidin staining in U937 cells: negative staining
[3]
  production of hCAP 18 and LL-37 in HaCat cells: failed to induce production of significant amount
[4]; 3 days
  amount of LL-37 produced from U937 cells: increased
[4]; 5 days
  amount of LL-37 produced from U937 cells: decreased sharply
[4]; 5.0×10^−7 M free drug
  production of hCAP 18 and LL-37 in U937 cells: failed to induce production of significant amount
Pseudomonas aeruginosa
  numbers of CFUs after incubation with U937 lysis solutions, versus other treatment groups: significantly lower numbers of CFUs
OKF6-TERT2
  concentration toxic to OKF6-TERT2: ≥ 5 µM
  concentration with little cytotoxicity in OKF6-TERT2: lower than 5.0×10^−7 M

## C=C1/C(=C\C=C2/CCC[C@]3(C)[C@@H]([C@H](C)CCCC(C)(C)O)CC[C@@H]23)C[C@@H](O)C[C@@H]1O [1,25-hydroxyvitamin D3]
Cell growth
  concentration generating cytotoxicity and inhibition of cell growth: 10^−7 M

## LL-37: human cathelicidin, small cationic antimicrobial peptide derived from hCAP-18
Staphylococcus aureus
  EC50 against Staphylococcus aureus: 1.27 µg/mL
